How the values were obtained:
[1] = LNP hydrodynamic diameter and polydispersity index by dynamic light scattering (DLS); type: physicochemical; details: LNP: 47.5% ionizable lipid, 40% cholesterol, 2.5% PEG-2000 DMG, 10% DPSC, N/P 4-8
Protocol: (§1) LNPs were prepared with 47.5% Ionizable Lipid (e.g., a compound provided herein): 40% cholesterol: 2.5% PEG-2000 DMG; and 10% DPSC and an N/P ratio range of 4-8. LNPs were formed by microfluidic mixing of the lipid and NA solutions using a Precision Nanosystems NanoAssemblr Spark or Benchtop series Instruments, according to the manufacturers protocol. A ratio of aqueous to organic solvent of approximately 2:1 or 3:1 was maintained during mixing using differential flow rates. After mixing, LNPs were collected, diluted in phosphate buffer saline (PBS) or Tris-buffered saline (TBS) (approximately 1:1 v/v). Further buffer exchange was conducted using dialysis in PBS or TBS at 4° C. for 4 to 24 hours against a 20 kDa filter. After this initial dialysis, each individual LNP preparation was characterized via dynamic light scattering (DLS) to measure the size (e.g., diameter) and polydispersity. LNPs falling within specific diameter and polydispersity ranges were pooled, and further dialyzed against PBS or TBS at 4° C. for 1 to 4 hours against a 100 kDa dialysis cassette. After the second dialysis, LNPs were sterile filtered using 0.22 μm filter and stored at 4° C. for further use.
LNP hydrodynamic diameter and polydispersity index (PDI) were measured using high throughput dynamic light scattering (DLS) (Stunner, Unchained Labs). LNPs were diluted 1×TBS or PBS to an appropriate concentration and analyzed.

[2] = LNP encapsulation efficiency by Ribogreen assay; type: physicochemical; details: LNP: 47.5% ionizable lipid, 40% cholesterol, 2.5% PEG-2000 DMG, 10% DPSC, N/P 4-8
Protocol: as §1
RNA concentration and encapsulation efficiency were determined by Ribogreen assay (BioTek Synergy LX plate reader).

| Structure (SMILES) | Mean Diameter (nm) [1] | Mean PDI [1] | Mean Encapsulation Efficiency (%) [2] |
| --- | --- | --- | --- |
| CCCCC/C=C\CCOC(=O)CCCCCCC(=O)OCC(COC(=O)CCCCCCC(=O)OCC/C=C\CCCCC)(COC(=O)CCCCCCC(=O)OCC/C=C\CCCCC)COC(=O)NCCN1CCCC1 [Compound 7-16, 8,8′-di((Z)-non-3-en-1-yl) O′1,O1-(2-(((8-(((Z)-non-3-en-1-yl)oxy)-8-oxooctanoyl)oxy)methyl)-2-((((2-(pyrrolidin-1-yl)ethyl)carbamoyl)oxy)methyl)propane-1,3-diyl) di(octanedioate)] | 108.5 nm | 0.07 | 79.9% |
| CC/C=C\CCCCOC(=O)CCCCCCC(=O)OCC(COC(=O)CCCCCCC(=O)OCCCC/C=C\CC)(COC(=O)CCCCCCC(=O)OCCCC/C=C\CC)COC(=O)NCCN1CCCC1 [Compound 7-18] | 153.0 nm | 0.08 | 38.4% |
| CCCCC/C=C\CCOC(=O)CCCCCC(=O)OCC(COC(=O)CCCCCC(=O)OCC/C=C\CCCCC)(COC(=O)CC12CC3CC(CC(C3)C1)C2)COC(=O)OCCCN(CC)CC [Compound 7-25, O′1,O1-(2-((2-((3r,5r,7r)-adamantan-1-yl)acetoxy)methyl)-2-((((3-(diethylamino)propoxy)carbonyl)oxy)methyl)propane-1,3-diyl) 7,7′-di((Z)-non-3-en-1-yl) di(heptanedioate)] | 123.1 nm | 0.11 | 66.9% |
| CCCCC/C=C\CCOC(=O)CCCC(=O)OCC(COC(=O)CCCC(=O)OCC/C=C\CCCCC)(COC(=O)CCCC(=O)OCC/C=C\CCCCC)COC(=O)OCCCN(CC)CC [Compound 7-37, O,O′-(2-((((3-(diethylamino)propoxy)carbonyl)oxy)methyl)-2-(((5-(((Z)-non-3-en-1-yl)oxy)-5-oxopentanoyl)oxy)methyl)propane-1,3-diyl) di((Z)-non-3-en-1-yl) diglutarate] | 119.7 nm | 0.11 | 71.9% |
| CCCCC/C=C\CCOC(=O)CCCCCC(=O)OCC(COC(=O)CCCCCC(=O)OCC/C=C\CCCCC)(COC(=O)CCCCCC(=O)OCC/C=C\CCCCC)COC(=O)CCCN1CCCC1 [Compound 7-51, 7,7′-di((Z)-non-3-en-1-yl) O′1,O1-(2-(((7-(((Z)-non-3-en-1-yl)oxy)-7-oxoheptanoyl)oxy)methyl)-2-(((4-(pyrrolidin-1-yl)butanoyl)oxy)methyl)propane-1,3-diyl) di(heptanedioate)] | 126.0 nm | 0.08 | 77.1% |
| CCCCC/C=C\CCOC(=O)CCCCCC(=O)OCC(COC(=O)CCCCCC(=O)OCC/C=C\CCCCC)(COC(=O)CCCN1CCCC1)COC(=O)CC12CC3CC(CC(C3)C1)C2 [Compound 7-53, O′1,O1-(2-((2-(adamantan-1-yl)acetoxy)methyl)-2-(((4-(pyrrolidin-1-yl)butanoyl)oxy)methyl)propane-1,3-diyl) 7,7′-di((Z)-non-3-en-1-yl) di(heptanedioate)] | 157.7 nm | 0.08 | 43.3% |
| CC/C=C\CCCCOC(CCC(=O)OCC(COC(=O)CCCCCOC(=O)C(CCCC)CCCCCC)(COC(=O)CCCCCOC(=O)C(CCCC)CCCCCC)COC(=O)OCCCN(CC)CC)OCCCC/C=C\CC (stereo not drawn) [Compound 7-55] | 80.1 nm | 0.13 | 87.5% |
| CC/C=C\CCCCOC(CCC(=O)OCC(COC(=O)CCCCCCOC(=O)C(CCCC)CCCCCC)(COC(=O)CCCCCCOC(=O)C(CCCC)CCCCCC)COC(=O)OCCCN(CC)CC)OCCCC/C=C\CC (stereo not drawn) [Compound 7-56] | 78.2 nm | 0.11 | 88.1% |
| CC/C=C\CCCCOC(CCC(=O)OCC(COC(=O)CCCCCCCOC(=O)C(CCCC)CCCCCC)(COC(=O)CCCCCCCOC(=O)C(CCCC)CCCCCC)COC(=O)OCCCN(CC)CC)OCCCC/C=C\CC (stereo not drawn) [Compound 7-57] | 81.0 nm | 0.17 | 88.4% |
| CC/C=C\CCCCOC(CCC(=O)OCC(COC(=O)CCCCCOC(=O)C(CCCC)CCCCCC)(COC(=O)CCCCCOC(=O)C(CCCC)CCCCCC)COC(=O)OCC1CCCN(CC)C1)OCCCC/C=C\CC (stereo not drawn) [Compound 7-58, ((2-(((4,4-bis(((Z)-oct-5-en-1-yl)oxy)butanoyl)oxy)methyl)-2-(((((1-ethylpiperidin-3-yl)methoxy)carbonyl)oxy)methyl)propane-1,3-diyl)bis(oxy))bis(6-oxohexane-6,1-diyl) bis(2-butyloctanoate)] | 77.7 nm | 0.15 | 90.1% |
| CC/C=C\CCCCOC(CCC(=O)OCC(COC(=O)CCCCCCOC(=O)C(CCCC)CCCCCC)(COC(=O)CCCCCCOC(=O)C(CCCC)CCCCCC)COC(=O)OCC1CCCN(CC)C1)OCCCC/C=C\CC (stereo not drawn) [Compound 7-59, ((2-(((4,4-bis(((Z)-oct-5-en-1-yl)oxy)butanoyl)oxy)methyl)-2-(((((1-ethylpiperidin-3-yl)methoxy)carbonyl)oxy)methyl)propane-1,3-diyl)bis(oxy))bis(7-oxoheptane-7,1-diyl) bis(2-butyloctanoate)] | 82.4 nm | 0.15 | 86.7% |
| CC/C=C\CCCCOC(CCC(=O)OCC(COC(=O)CCCCCCCOC(=O)C(CCCC)CCCCCC)(COC(=O)CCCCCCCOC(=O)C(CCCC)CCCCCC)COC(=O)OCC1CCCN(CC)C1)OCCCC/C=C\CC (stereo not drawn) [Compound 7-60, 2-(((4,4-bis(((Z)-oct-5-en-1-yl)oxy)butanoyl)oxy)methyl)-2-(((((1-ethylpiperidin-3-yl)methoxy)carbonyl)oxy)methyl)propane-1,3-diyl bis(8-((2-butyloctanoyl)oxy)octanoate)] | 86.6 nm | 0.14 | 84.6% |
| CC/C=C\CCCCOC(CCC(=O)OCC(COC(=O)CCCCCOC(=O)C(CCCC)CCCCCC)(COC(=O)CCCCCOC(=O)C(CCCC)CCCCCC)COC(=O)OCCCN(C)CC)OCCCC/C=C\CC (stereo not drawn) [Compound 7-61] | 76.1 nm | 0.17 | 88.9% |
| CC/C=C\CCCCOC(CCC(=O)OCC(COC(=O)CCCCCCOC(=O)C(CCCC)CCCCCC)(COC(=O)CCCCCCOC(=O)C(CCCC)CCCCCC)COC(=O)OCCCN(C)CC)OCCCC/C=C\CC (stereo not drawn) [Compound 7-62] | 80.2 nm | 0.14 | 88.6% |
| CC/C=C\CCCCOC(CCC(=O)OCC(COC(=O)CCCCCCCOC(=O)C(CCCC)CCCCCC)(COC(=O)CCCCCCCOC(=O)C(CCCC)CCCCCC)COC(=O)OCCCN(C)CC)OCCCC/C=C\CC (stereo not drawn) [Compound 7-63] | 79.6 nm | 0.14 | 87.8% |
| CC/C=C\CCCCOC(CCC(=O)OCC(COC(=O)CCCCCOC(=O)C(CCCC)CCCCCC)(COC(=O)CCCCCOC(=O)C(CCCC)CCCCCC)COC(=O)NCCN1CCCC1)OCCCC/C=C\CC (stereo not drawn) [Compound 7-64, ((2-(((4,4-bis(((Z)-oct-5-en-1-yl)oxy)butanoyl)oxy)methyl)-2-((((2-(pyrrolidin-1-yl)ethyl)carbamoyl)oxy)methyl)propane-1,3-diyl)bis(oxy))bis(6-oxohexane-6,1-diyl) bis(2-butyloctanoate)] | 82.1 nm | 0.13 | 90.4% |
| CC/C=C\CCCCOC(CCC(=O)OCC(COC(=O)CCCCCCOC(=O)C(CCCC)CCCCCC)(COC(=O)CCCCCCOC(=O)C(CCCC)CCCCCC)COC(=O)NCCN1CCCC1)OCCCC/C=C\CC (stereo not drawn) [Compound 7-65, ((2-(((4,4-bis(((Z)-oct-5-en-1-yl)oxy)butanoyl)oxy)methyl)-2-((((2-(pyrrolidin-1-yl)ethyl)carbamoyl)oxy)methyl)propane-1,3-diyl)bis(oxy))bis(7-oxoheptane-7,1-diyl) bis(2-butyloctanoate)] | 82.3 nm | 0.15 | 89.2% |
| CC/C=C\CCCCOC(CCC(=O)OCC(COC(=O)CCCCCCCOC(=O)C(CCCC)CCCCCC)(COC(=O)CCCCCCCOC(=O)C(CCCC)CCCCCC)COC(=O)NCCN1CCCC1)OCCCC/C=C\CC (stereo not drawn) [Compound 7-66, 2-(((4,4-bis(((Z)-oct-5-en-1-yl)oxy)butanoyl)oxy)methyl)-2-((((2-(pyrrolidin-1-yl)ethyl)carbamoyl)oxy)methyl)propane-1,3-diyl bis(8-((2-butyloctanoyl)oxy)octanoate)] | 87.2 nm | 0.12 | 88.8% |
| CC/C=C\CCCCOC(CCC(=O)OCC(COC(=O)CCCCCCC/C=C\C/C=C\CCCCC)(COC(=O)CCCCCCC/C=C\C/C=C\CCCCC)COC(=O)OCCCN(CC)CC)OCCCC/C=C\CC [Compound 7-67, 2-(((4,4-bis(((Z)-oct-5-en-1-yl)oxy)butanoyl)oxy)methyl)-2-((((3-(diethylamino)propoxy)carbonyl)oxy)methyl)propane-1,3-diyl (9Z,9′Z,12Z,12′Z)-bis(octadeca-9,12-dienoate)] | 87.5 nm | 0.18 | 89.5% |

— patent publication US20240358841A1, “NANOMATERIALS COMPRISING TETRAVALENT LIPID COMPOUNDS” (Beam Therapeutics Inc., priority 2021, published 2024)
